Results from the OligoGym collection.
HELM strings list units from the 5' end as sugar, base in round brackets, then linkage (d deoxyribose, r ribose, m 2'-O-methyl, p phosphodiester). Strings are as the collection lists them; they lack the last nucleoside at the 3' end of the tested compound. [moe] = 2'-O-(2-methoxyethyl) (MOE); [sp] = phosphorothioate linkage; [m5C] = 5-methylcytosine

Molecular target: GFAP
Experiment: mouse, dose not given
Conditions: ASO

Row | Substance | 3 h FOB score [score 0-7]
1 | RNA1{[moe](G)[sp].[moe]([m5C])p.[moe](T)p.[moe](T)p.[moe](T)[sp].d(T)[sp].d(G)[sp].d(A)[sp].d(G)[sp].d(A)[sp].d(T)[sp].d(A)[sp].d(T)[sp].d([m5C])[sp].d(T)[sp].[moe](T)p.[moe](G)p.[moe](T)[sp].[moe](G)}$$$$ (last 3' nucleoside missing) | 2
2 | RNA1{[moe](G)[sp].[moe]([m5C])p.[moe](T)p.[moe](T)p.[moe](T)p.[moe](T)p.d(G)[sp].d(A)[sp].d(G)[sp].d(A)[sp].d(T)[sp].d(A)[sp].d(T)[sp].d([m5C])[sp].d(T)[sp].d(T)[sp].[moe](G)p.[moe](T)[sp].[moe](G)}$$$$ (last 3' nucleoside missing) | 2
3 | RNA1{[moe](G)[sp].[moe]([m5C])p.[moe](T)p.[moe](T)p.[moe](T)p.[moe](T)p.d(G)[sp].d([m5C])[sp].d([m5C])[sp].d([m5C])[sp].d([m5C])[sp].d([m5C])[sp].d(T)[sp].d(G)[sp].d(T)[sp].d(A)[sp].[moe](G)p.[moe](T)[sp].[moe](G)}$$$$ (last 3' nucleoside missing) | 3
4 | RNA1{[moe](G)[sp].[moe]([m5C])p.[moe](T)p.[moe](T)p.[moe](T)p.d(T)[sp].d(G)[sp].d([m5C])[sp].d([m5C])[sp].d([m5C])[sp].d([m5C])[sp].d([m5C])[sp].d(T)[sp].d(G)[sp].d(T)[sp].[moe](A)p.[moe](G)p.[moe](T)[sp].[moe](G)}$$$$ (last 3' nucleoside missing) | 4
5 | RNA1{[moe](G)[sp].[moe]([m5C])p.[moe](T)p.[moe](T)p.d(T)[sp].d(T)[sp].d(G)[sp].d(A)[sp].d(G)[sp].d(A)[sp].d(T)[sp].d(A)[sp].d(T)[sp].d([m5C])[sp].[moe](T)p.[moe](T)p.[moe](G)p.[moe](T)[sp].[moe](G)}$$$$ (last 3' nucleoside missing) | 1
6 | RNA1{[moe](G)[sp].[moe]([m5C])p.[moe](T)p.[moe](T)p.d(T)[sp].d(T)[sp].d(G)[sp].d([m5C])[sp].d([m5C])[sp].d([m5C])[sp].d([m5C])[sp].d([m5C])[sp].d(T)[sp].d(G)[sp].[moe](T)p.[moe](A)p.[moe](G)p.[moe](T)[sp].[moe](G)}$$$$ (last 3' nucleoside missing) | 3
7 | RNA1{[moe](G)[sp].[moe]([m5C])p.[moe](T)p.[moe]([m5C])p.[moe]([m5C])[sp].d([m5C])[sp].d(A)[sp].d([m5C])[sp].d(A)[sp].d([m5C])[sp].d(T)[sp].d(A)[sp].d([m5C])[sp].d(A)[sp].d(T)[sp].[moe](A)p.[moe](T)p.[moe](A)[sp].[moe](A)}$$$$ (last 3' nucleoside missing) | 2
8 | RNA1{[moe](G)[sp].[moe]([m5C])p.[moe]([m5C])p.[moe](A)p.[moe](A)[sp].d(A)[sp].d(T)[sp].d([m5C])[sp].d([m5C])[sp].d([m5C])[sp].d([m5C])[sp].d(T)[sp].d([m5C])[sp].d(T)[sp].d(T)[sp].[moe]([m5C])p.[moe]([m5C])p.[moe]([m5C])[sp].[moe](A)}$$$$ (last 3' nucleoside missing) | 0
9 | RNA1{[moe](G)[sp].[moe]([m5C])p.[moe]([m5C])p.[moe](A)p.[moe](G)p.[moe](T)p.d(G)[sp].d(T)[sp].d([m5C])[sp].d(T)[sp].d(T)[sp].d([m5C])[sp].d(A)[sp].d([m5C])[sp].d(T)[sp].d(T)[sp].[moe](T)p.[moe](G)[sp].[moe]([m5C])}$$$$ (last 3' nucleoside missing) | 1
10 | RNA1{[moe](G)[sp].[moe]([m5C])p.[moe]([m5C])p.[moe](A)p.[moe](T)[sp].d(T)[sp].d(T)[sp].d(A)[sp].d(T)[sp].d([m5C])[sp].d(T)[sp].d(G)[sp].d(T)[sp].[moe](G)p.[moe]([m5C])p.[moe](T)[sp].[moe](T)}$$$$ (last 3' nucleoside missing) | 1
11 | RNA1{[moe](G)[sp].[moe]([m5C])p.[moe]([m5C])p.[moe](A)p.[moe](T)[sp].d(T)[sp].d(T)[sp].d(A)[sp].d(T)[sp].d([m5C])[sp].d(T)[sp].d(G)[sp].d(T)[sp].d(G)[sp].d([m5C])[sp].[moe](T)p.[moe](T)p.[moe](T)[sp].[moe](A)}$$$$ (last 3' nucleoside missing) | 6
12 | RNA1{[moe](G)[sp].[moe]([m5C])p.[moe]([m5C])p.[moe](T)p.[moe](T)[sp].d([m5C])[sp].d([m5C])[sp].d([m5C])[sp].d(T)[sp].d(T)[sp].d(T)[sp].d([m5C])[sp].d([m5C])[sp].d(T)[sp].d(G)[sp].[moe](T)p.[moe]([m5C])p.[moe](T)[sp].[moe](G)}$$$$ (last 3' nucleoside missing) | 5
13 | RNA1{[moe](T)[sp].[moe](A)p.[moe](G)p.[moe](T)p.[moe]([m5C])p.d(A)[sp].d(G)[sp].d([m5C])[sp].d([m5C])[sp].d(T)[sp].d(G)[sp].d(G)[sp].d(T)[sp].d(T)[sp].d(A)[sp].[moe](G)p.[moe]([m5C])p.[moe]([m5C])[sp].[moe](T)}$$$$ (last 3' nucleoside missing) | 4
14 | RNA1{[moe](T)[sp].[moe](A)p.[moe](G)p.[moe](T)p.d([m5C])[sp].d(A)[sp].d(G)[sp].d([m5C])[sp].d([m5C])[sp].d(T)[sp].d(G)[sp].d(G)[sp].d(T)[sp].d(T)[sp].[moe](A)p.[moe](G)p.[moe]([m5C])p.[moe]([m5C])[sp].[moe](T)}$$$$ (last 3' nucleoside missing) | 3
15 | RNA1{[moe](T)[sp].[moe](A)p.[moe](T)p.[moe](T)p.[moe](A)[sp].d(G)[sp].d(G)[sp].d(A)[sp].d(T)[sp].d([m5C])[sp].d([m5C])[sp].d([m5C])[sp].d(A)[sp].[moe](T)p.[moe]([m5C])p.[moe](T)[sp].[moe](A)}$$$$ (last 3' nucleoside missing) | 3
16 | RNA1{[moe](T)[sp].[moe](A)p.[moe](T)p.[moe]([m5C])p.[moe](T)[sp].d(G)[sp].d(T)[sp].d(G)[sp].d([m5C])[sp].d(T)[sp].d(T)[sp].d(T)[sp].d(A)[sp].[moe](G)p.[moe](T)p.[moe](G)[sp].[moe](A)}$$$$ (last 3' nucleoside missing) | 3
17 | RNA1{[moe](T)[sp].[moe](A)p.[moe]([m5C])p.[moe](A)p.[moe](T)[sp].d([m5C])[sp].d([m5C])[sp].d([m5C])[sp].d([m5C])[sp].d(T)[sp].d(T)[sp].d(T)[sp].d([m5C])[sp].d(T)[sp].d([m5C])[sp].[moe](T)p.[moe]([m5C])p.[moe]([m5C])[sp].[moe](T)}$$$$ (last 3' nucleoside missing) | 1
18 | RNA1{[moe](T)[sp].[moe](G)p.[moe](A)p.[moe](G)p.[moe](A)[sp].d(T)[sp].d(A)[sp].d(T)[sp].d([m5C])[sp].d(T)[sp].d(T)[sp].d(G)[sp].d(T)[sp].d(G)[sp].d(A)[sp].[moe]([m5C])p.[moe]([m5C])p.[moe](T)[sp].[moe](T)}$$$$ (last 3' nucleoside missing) | 6
19 | RNA1{[moe](T)[sp].[moe](G)p.[moe](A)p.[moe](G)p.[moe](G)[sp].d([m5C])[sp].d(T)[sp].d(T)[sp].d(T)[sp].d(T)[sp].d(G)[sp].d(A)[sp].d(G)[sp].d(A)[sp].d(T)[sp].[moe](A)p.[moe](T)p.[moe]([m5C])[sp].[moe](T)}$$$$ (last 3' nucleoside missing) | 3
20 | RNA1{[moe](T)[sp].[moe](G)p.[moe](A)p.[moe](G)p.[moe](T)[sp].d(T)[sp].d(T)[sp].d([m5C])[sp].d(T)[sp].d(T)[sp].d(G)[sp].d(T)[sp].d(T)[sp].d(A)[sp].d(G)[sp].[moe](T)p.[moe](T)p.[moe](G)[sp].[moe](G)}$$$$ (last 3' nucleoside missing) | 6
21 | RNA1{[moe](T)[sp].[moe](G)p.[moe](A)p.[moe](G)p.[moe](T)[sp].d([m5C])[sp].d(T)[sp].d([m5C])[sp].d(A)[sp].d(G)[sp].d(T)[sp].d(T)[sp].d(T)[sp].d(T)[sp].d([m5C])[sp].[moe]([m5C])p.[moe](T)p.[moe]([m5C])[sp].[moe]([m5C])}$$$$ (last 3' nucleoside missing) | 0
22 | RNA1{[moe](T)[sp].[moe](G)p.[moe](A)p.[moe]([m5C])p.[moe](T)p.[moe](A)p.d(T)[sp].d([m5C])[sp].d(T)[sp].d(A)[sp].d(G)[sp].d(G)[sp].d(A)[sp].d(T)[sp].d(T)[sp].d(T)[sp].[moe](G)p.[moe](G)[sp].[moe]([m5C])}$$$$ (last 3' nucleoside missing) | 2
23 | RNA1{[moe](T)[sp].[moe](G)p.[moe](A)p.[moe]([m5C])p.[moe](T)p.d(A)[sp].d(T)[sp].d([m5C])[sp].d(T)[sp].d(A)[sp].d(G)[sp].d(G)[sp].d(A)[sp].d(T)[sp].d(T)[sp].[moe](T)p.[moe](G)p.[moe](G)[sp].[moe]([m5C])}$$$$ (last 3' nucleoside missing) | 3
24 | RNA1{[moe](T)[sp].[moe](G)p.[moe](A)p.[moe]([m5C])p.[moe]([m5C])[sp].d(T)[sp].d(G)[sp].d(T)[sp].d(G)[sp].d(A)[sp].d([m5C])[sp].d(T)[sp].d(A)[sp].d(T)[sp].d([m5C])[sp].[moe](T)p.[moe](A)p.[moe](G)[sp].[moe](G)}$$$$ (last 3' nucleoside missing) | 5
25 | RNA1{[moe](T)[sp].[moe](G)p.[moe](G)p.[moe](T)p.[moe](G)p.[moe]([m5C])p.d(T)[sp].d(T)[sp].d(T)[sp].d(T)[sp].d(G)[sp].d([m5C])[sp].d([m5C])[sp].d([m5C])[sp].d([m5C])[sp].d([m5C])[sp].[moe](T)p.[moe](G)[sp].[moe](T)}$$$$ (last 3' nucleoside missing) | 1
26 | RNA1{[moe](T)[sp].[moe](G)p.[moe](G)p.[moe](T)p.[moe](G)p.d([m5C])[sp].d(T)[sp].d(T)[sp].d(T)[sp].d(T)[sp].d(G)[sp].d([m5C])[sp].d([m5C])[sp].d([m5C])[sp].d([m5C])[sp].[moe]([m5C])p.[moe](T)p.[moe](G)[sp].[moe](T)}$$$$ (last 3' nucleoside missing) | 0
